According to patent US6310051A, “Use of chelating agents in the treatment of atherosclerotic conditions” (Nycomed Imaging AS, priority 1997, dated 2001):

Assays:
[1] = test system: human LDL; experiment: Copper-catalyzed oxidation of human LDL in vitro, increase in absorbance at 234 nm (diene-products); format: biochemical; conditions: 5 μM CuCl2, 30° C., PBS; for inhibition of LDL oxidation, concentration dependence: absorbance at 234 nm over 225 minutes; for inhibition of LDL oxidation at 5 μM: 5 μM compound; for inhibition of LDL oxidation at 5 μM / inhibition of LDL oxidation at 10 μM: 234 nm; for inhibition of LDL oxidation at 10 μM: 10 μM compound
Protocol: Copper-catalyzed LDL-oxidation was monitored by following the increase in absorbance at wavelength 234 nm over time (representing increase in diene-products).
Human LDL (1.025<d<1.050 g/ml) was freshly isolated (from sera of normolipidemic donors who had fasted overnight) by sequential ultracentrifugation, in the presence of EDTA (1.4 mg/ml) to inihibit lipid peroxidation. LDL was finally dialyzed under nitrogen against 10 mM phosphate buffer with 160 mM NaCl, pH 7.4 (PBS), for 24 h at 4° C.
Assays were performed at 30° C. in PBS by mixing 200 μl of the LDL-containing dialysate to PBS to a final volume of 2000 μl. The LDL-oxidation was started by adding 5 μM CuCl2 and the changes in absorbance at wavelength 234 nm was followed over 225 minutes.

[2] = Plasma metallo-PLED by HPLC after oral (intragastric) administration to rats; format: in vivo; conditions: rat, 100 μmol/kg MnPLED into the stomach, 5 minutes after administration
Protocol: In order to get a rough estimate of the bioavailability of MnPLED after oral administration, rats were instilled with MnPLED into the stomach and the plasma concentrations of metallo-PLED was determined at various times after administration.
100 μmol/kg MnPLED was instilled into the stomach. Blood (ca 4.5 ml) was withdrawn by cardiac puncture (under CO2 -anaesthesia) and collected in tubes containing heparin (trace metal analysis tubes), 5, 30, 60, 120 minutes and 24 hours after oral administration (2 rats for each time point). Plasma was prepared by centrifugation and ultrafiltration and metallo-PLED was determined by HPLC as described by Toft et al. 1997 (Acta Radiologica 38: 677-689).

| Substance | inhibition of LDL oxidation, concentration dependence [1] | inhibition of LDL oxidation at 5 μM [1] | inhibition of LDL oxidation at 10 μM [1] | presence of MnPLED in plasma ([2]; one animal) | transmetallation of MnPLED into ZnPLED ([2]; plasma) |
| --- | --- | --- | --- | --- | --- |
| dihydrogen [N,N'-ethylenebis [N-[[3-hydroxy-5-(hydroxymethyl)-2-methyl-4-pyridyl]methyl] glycinato] (4-)] manganate(2-) [MnPLED] | inhibited LDL oxidation in a concentration-dependent manner | more than 50% | almost complete inhibition | may indicate the presence of small amounts of MnPLED in plasma | most of the MnPLED has already been transmetallated into ZnPLED |
| MnDPDP | inhibited LDL oxidation in a concentration-dependent manner | more than 50% | almost complete inhibition | – | – |
